Key:
Experiment in all cases: relative viability (nuclei count vs DMSO), 5 days (fraction); higher = more cells survive
NCI-H441 = tested on: NCI-H441
How it was run: (§1)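 Lung cancer cell lines, seeded in 1536-well plates, were treated the following day by pin tool with a single drug or with five library-drug doses (not always all listed) in √10 steps on top of a fixed anchor-drug dose. Cells were fixed and nuclei stained in one step after 5 days, and nuclei were counted. Relative viability is the nuclei count for treated wells divided by that for vehicle wells, reported as medians of duplicate plates.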

EKVX = tested on: EKVX
How it was run: as §1

NCI-H358 = tested on: NCI-H358
How it was run: as §1

HCC-366 = tested on: HCC-366
How it was run: as §1

NCI-H1437 = tested on: NCI-H1437
How it was run: as §1

LOU-NH91 = tested on: LOU-NH91
How it was run: as §1

NCI-H1650 = tested on: NCI-H1650
How it was run: as §1

HCC-15 = tested on: HCC-15
How it was run: as §1

NCI-H1734 = tested on: NCI-H1734
How it was run: as §1

LCLC-103H = tested on: LCLC-103H
How it was run: as §1

BEN = tested on: BEN
How it was run: as §1

NCI-H1395 = tested on: NCI-H1395
How it was run: as §1

NCI-H838 = tested on: NCI-H838
How it was run: as §1

NCI-H1651 = tested on: NCI-H1651
How it was run: as §1

NCI-H460 = tested on: NCI-H460
How it was run: as §1

NCI-H1755 = tested on: NCI-H1755
How it was run: as §1

CAL-12T = tested on: CAL-12T
How it was run: as §1

NCI-H2085 = tested on: NCI-H2085
How it was run: as §1

NCI-H1563 = tested on: NCI-H1563
How it was run: as §1

NCI-H1975 = tested on: NCI-H1975
How it was run: as §1

HCC-44 = tested on: HCC-44
How it was run: as §1

NCI-H1355 = tested on: NCI-H1355
How it was run: as §1

NCI-H2023 = tested on: NCI-H2023
How it was run: as §1

NCI-H2342 = tested on: NCI-H2342
How it was run: as §1

SMILES: C[C@@H]1CN(CC(=O)Nc2ccc3c(c2)Cc2cccc(-c4cc(=O)cc(N5CCOCC5)o4)c2S3)C[C@H](C)O1 + Nc1nc2[nH]cc(CCc3ccc(C(=O)N[C@@H](CCC(=O)O)C(=O)O)cc3)c2c(=O)[nH]1 [Pemetrexed] (partner 0.2 µM)
- relative viability (NCI-H441; first compound 0.04 µM): 0.281
- relative viability (NCI-H441; first compound 0.1265 µM): 0.263
- relative viability (NCI-H441; first compound 0.4 µM): 0.247
- relative viability (NCI-H441; first compound 4 µM): 0.217
- relative viability (EKVX; first compound 0.04 µM): 0.376
- relative viability (EKVX; first compound 0.1265 µM): 0.42
- relative viability (EKVX; first compound 0.4 µM): 0.31
- relative viability (EKVX; first compound 4 µM): 0.369
- relative viability (NCI-H358; first compound 0.04 µM): 0.179
- relative viability (NCI-H358; first compound 0.1265 µM): 0.154
- relative viability (NCI-H358; first compound 0.4 µM): 0.162
- relative viability (NCI-H358; first compound 4 µM): 0.157
- relative viability (HCC-366; first compound 0.04 µM): 0.151
- relative viability (HCC-366; first compound 0.1265 µM): 0.162
- relative viability (HCC-366; first compound 0.4 µM): 0.212
- relative viability (HCC-366; first compound 4 µM): 0.152
- relative viability (NCI-H1437; first compound 0.04 µM): 0.402
- relative viability (NCI-H1437; first compound 0.1265 µM): 0.338
- relative viability (NCI-H1437; first compound 0.4 µM): 0.336
- relative viability (NCI-H1437; first compound 4 µM): 0.335
- relative viability (LOU-NH91; first compound 0.04 µM): 0.339
- relative viability (LOU-NH91; first compound 0.1265 µM): 0.367
- relative viability (LOU-NH91; first compound 0.4 µM): 0.36
- relative viability (LOU-NH91; first compound 4 µM): 0.329
- relative viability (NCI-H1650; first compound 0.04 µM): 0.367
- relative viability (NCI-H1650; first compound 0.1265 µM): 0.353
- relative viability (NCI-H1650; first compound 0.4 µM): 0.408
- relative viability (NCI-H1650; first compound 4 µM): 0.329
- relative viability (HCC-15; first compound 0.04 µM): 0.212
- relative viability (HCC-15; first compound 0.1265 µM): 0.203
- relative viability (HCC-15; first compound 0.4 µM): 0.224
- relative viability (HCC-15; first compound 4 µM): 0.212
- relative viability (NCI-H1734; first compound 0.04 µM): 0.424
- relative viability (NCI-H1734; first compound 0.1265 µM): 0.405
- relative viability (NCI-H1734; first compound 0.4 µM): 0.386
- relative viability (NCI-H1734; first compound 4 µM): 0.398
- relative viability (LCLC-103H; first compound 0.04 µM): 0.495
- relative viability (LCLC-103H; first compound 0.1265 µM): 0.464
- relative viability (LCLC-103H; first compound 0.4 µM): 0.458
- relative viability (LCLC-103H; first compound 4 µM): 0.507
- relative viability (BEN; first compound 0.04 µM): 0.633
- relative viability (BEN; first compound 0.1265 µM): 0.713
- relative viability (BEN; first compound 0.4 µM): 0.749
- relative viability (BEN; first compound 4 µM): 0.648
- relative viability (NCI-H1395; first compound 0.1265 µM): 0.833
- relative viability (NCI-H1395; first compound 0.4 µM): 0.749
- relative viability (NCI-H1395; first compound 4 µM): 1.08
- relative viability (NCI-H838; first compound 0.04 µM): 0.262
- relative viability (NCI-H838; first compound 0.1265 µM): 0.244
- relative viability (NCI-H838; first compound 0.4 µM): 0.243
- relative viability (NCI-H838; first compound 4 µM): 0.236
- relative viability (NCI-H1651; first compound 0.04 µM): 0.549
- relative viability (NCI-H1651; first compound 0.1265 µM): 0.565
- relative viability (NCI-H1651; first compound 0.4 µM): 0.569
- relative viability (NCI-H1651; first compound 4 µM): 0.52
- relative viability (NCI-H460; first compound 0.04 µM): 0.0638
- relative viability (NCI-H460; first compound 0.1265 µM): 0.0634
- relative viability (NCI-H460; first compound 0.4 µM): 0.0696
- relative viability (NCI-H460; first compound 4 µM): 0.0616
- relative viability (NCI-H1755; first compound 0.04 µM): 0.401
- relative viability (NCI-H1755; first compound 0.1265 µM): 0.507
- relative viability (NCI-H1755; first compound 0.4 µM): 0.453
- relative viability (NCI-H1755; first compound 4 µM): 0.47
- relative viability (CAL-12T; first compound 0.04 µM): 1.27
- relative viability (CAL-12T; first compound 0.1265 µM): 1.21
- relative viability (CAL-12T; first compound 0.4 µM): 1.08
- relative viability (CAL-12T; first compound 4 µM): 0.428
- relative viability (NCI-H2085; first compound 0.04 µM): 0.961
- relative viability (NCI-H2085; first compound 0.1265 µM): 0.936
- relative viability (NCI-H2085; first compound 0.4 µM): 0.935
- relative viability (NCI-H2085; first compound 4 µM): 0.759
- relative viability (NCI-H1563; first compound 0.04 µM): 0.661
- relative viability (NCI-H1563; first compound 0.1265 µM): 0.774
- relative viability (NCI-H1563; first compound 0.4 µM): 0.715
- relative viability (NCI-H1563; first compound 4 µM): 0.712
- relative viability (NCI-H1975; first compound 0.04 µM): 0.268
- relative viability (NCI-H1975; first compound 0.1265 µM): 0.263
- relative viability (NCI-H1975; first compound 0.4 µM): 0.303
- relative viability (NCI-H1975; first compound 4 µM): 0.274
- relative viability (HCC-44; first compound 0.04 µM): 0.639
- relative viability (HCC-44; first compound 0.1265 µM): 0.644
- relative viability (HCC-44; first compound 0.4 µM): 0.639
- relative viability (HCC-44; first compound 4 µM): 0.63
- relative viability (NCI-H1355; first compound 0.04 µM): 0.941
- relative viability (NCI-H1355; first compound 0.1265 µM): 1.04
- relative viability (NCI-H1355; first compound 0.4 µM): 0.959
- relative viability (NCI-H1355; first compound 4 µM): 0.997
- relative viability (NCI-H2023; first compound 0.04 µM): 0.263
- relative viability (NCI-H2023; first compound 0.1265 µM): 0.213
- relative viability (NCI-H2023; first compound 0.4 µM): 0.203
- relative viability (NCI-H2023; first compound 4 µM): 0.199
- relative viability (NCI-H2342; first compound 0.04 µM): 0.745
- relative viability (NCI-H2342; first compound 0.1265 µM): 0.777
- relative viability (NCI-H2342; first compound 0.4 µM): 0.767
- relative viability (NCI-H2342; first compound 4 µM): 0.729
